Data set [1] deals with BCL11A protein. Briefly: Western blot of BCL11A protein in primary human erythroid cells. As to conditions: for expression level of BCL11A protein (in words): 3 days, AS-28 at 0.5 μM and 1 μM. It is filed as cell-based. As for the experimental part:
(§1) Peripheral blood samples were purchased from the Taipei Blood Center. The concentrated blood was diluted 1:5 (V/V) in phosphate-buffered saline (PBS) and distributed in a thin layer on Ficoll-paque PLUS ([…]) (GE Healthcare) in a SepMate column (STEMCELL). After centrifugation at 1200 g for 10 minutes, the cells in the inter-phase region were collected. The collected cells were washed with PBS and centrifuged at low speed three times. The remaining mononuclear cells were expanded in Phase I medium containing 1×SFEM (STEMCELL), 100 ng/ml SCF, 20 ng/ml IL-3, 20 ng/ml IL-6, and 100 ng/ml Flt3-L at 37° C. in an incubator with 5% CO2 for 7 days. The expanded mononuclear cells were further differentiated in Phase II medium containing 1×SFEM (StemSpan), 20 ng/ml SCF, 5 ng/ml IL-3, 1 U/ml EPO for another 7 days. The differentiated erythroid cells were treated with indicated compounds of different dosages with a seeding density of 5×10^5 cells/ml for another 3 days.
After 3 days of treatment, total protein was extracted by modified RIPA (50 mM Tris-HCl pH7.8, 150 mM NaCl, 1% NP-40, 0.5% sodium deoxycholate, 0.1% SDS, 1 mM EGTA, 5 mM EDTA, 10 mM NaF, 1 mM […] and 1× complete EDTA-free Protease Inhibitor Cocktail). 30 μg of protein extracts were separated by 10% SDS-PAGE and the resulting gel was blotted onto PVDF membrane. After blocking with 5% non-fat milk in TBST, the membrane was incubated overnight with primary antibody against BCL11A or β-actin at 4° C. After incubating with horseradish peroxidase-conjugated secondary antibodies and washing the blot, the signals of indicated proteins were visualized by ECL (PerkinElmer) following the manufacturer's protocol.
BCL11A has been reported as a key negative regulator of γ-globin gene expression^23. Knockdown of BCL11A dramatically increases expression of the γ-globin gene. To investigate whether HbF-inducing agents activate γ-globin gene expression by modulating BCL11A protein levels, primary human erythroid cells were treated with known HbF-inducing agents (HU, NaB, and AS-28 (0.5 μM and 1 μM)), and also Compound II, SS-2394, Compound 3, Compound 8, and then harvested for Western blot analysis (FIG. 4; FIG. 11).
(A western blot detects proteins with antibodies after separation by electrophoresis.)

Data set [2] deals with human primary erythroid cells. Briefly: RNA-sequence gene expression profile with Ingenuity Pathways Analysis. It is filed as cell-based. The conditions noted are these: human primary erythroid cells treated with AS-28. As for the experimental part:
The RNA-sequence data was analyzed by Ingenuity Pathways Analysis (IPA). The top cellular pathways in the primary erythroid cells affected by AS-28 are listed here. DEGs: Fold change ≥1.4, p<0.05.
(§2) In order to examine whether AS-28 would cause cellular toxicity, the gene expression profiles of human primary erythroid cells in culture were compared by RNA-sequence analysis. Several candidate genes, encoding known γ globin gene regulators were selected from the gene list of RNA-sequence data (fold change >1.4) for validation by RT-qPCR (FIG. 7). […] In addition, AS-28 inhibited the expression of γ globin repressor c-MYB (0.5-fold).
To reveal the global effect of AS-28 on human primary erythroid cells, the differentially expressed genes (DEGs) from the RNA-sequence data (fold change ≥1.4 and p<0.05) were selected for analysis by Ingenuity Pathways Analysis (IPA).

Data set [3] concerns primary human erythroid cells. Briefly: Cell viability assay (AlamarBlue) in primary human erythroid cell culture. The conditions noted are these: 3 days. It is filed as cell-based. The method, then: as §1, with “The differentiated erythroid cells were treated with indicated compounds of different dosages with a seeding density of 5×10^5 cells/ml for another 3 days.” left out
Cell viability was assessed using AlamarBlue reagent (Invitrogen). […] Cell viability was evaluated using a multi-label counter (Ex 530-560 nm, Em 590 nm) (PerkinElmer).
Compound AS-28 was designed based on the pharmacophore of the HbF-inducing compound TN1 (FIGS. 1A-1B). The efficacy of γ-globin gene induction by AS-28 treatment using a primary human erythroid cell culture system was evaluated. After two weeks of in vitro erythroid cell differentiation, cells were treated with AS-28 for three days and then harvested for quantitative RT-PCR analysis and cell viability assay.

Data set [4] relates to γ-globin gene. Nature of the data set: γ-globin mRNA induction by quantitative RT-PCR in primary human erythroid cell culture. As to conditions: 3 days, primary human erythroid cells. The data set is classed as cell-based. The method, then: as §1, with “The expanded mononuclear cells were further differentiated in Phase II medium containing 1×SFEM (StemSpan), 20 ng/ml SCF, 5 ng/ml IL-3, 1 U/ml EPO for another 7 days. The differentiated erythroid cells were treated with indicated compounds of different dosages with a seeding density of 5×10^5 cells/ml for another 3 days.” left out
(§3) After 3 days of compound treatment, total RNA was extracted by a Quick-RNA miniprep kit (Zymo) and reverse-transcription was performed using Maxima H Minus Reverse Transcriptase (ThermoFisher Scientific) according to the manufacturer's instructions. Quantitative PCR was performed on a LightCycler system with SYBR green master mix following the manufacturer's instructions (Roche). The relative quantitative RT-PCR data was normalized to the Cq number of […] and compared to a mock control.
Compound AS-28 was designed based on the pharmacophore of the HbF-inducing compound TN1 (FIGS. 1A-1B). The efficacy of γ-globin gene induction by AS-28 treatment using a primary human erythroid cell culture system was evaluated. […]

For data set [5], the system named is NFE2L2. Nature of the data set: RT-qPCR of γ-globin transcription regulators in human primary erythroid cells: NFE2L2. As to conditions: AS-28 0.5 μM. It is filed as cell-based. The method, then: (§4) The total RNAs were isolated from human primary erythroid cells in culture without (Mock) and with (AS-28) treatment by AS-28, and analyzed by RT-qPCR. N=4 biological experiments, *, p<0.05; ***, p<0.001.
as §3, §2
In general terms: In qPCR the cycle at which signal appears reflects the starting amount.

Data set [6] relates to γ-globin gene. Nature of the data set: γ-globin mRNA induction in hydroxyurea-resistant primary human erythroid cells. The data set is classed as cell-based. The conditions noted are these: 0.5 μM, HU-resistant primary human erythroid cells. The method, then:
as §1, with “The differentiated erythroid cells were treated with indicated compounds of different dosages with a seeding density of 5×10^5 cells/ml for another 3 days.” left out
After 3 days of compound treatment, total RNA was extracted by a Quick-RNA miniprep kit (Zymo) and reverse-transcription was performed using Maxima H Minus Reverse Transcriptase (ThermoFisher Scientific) according to the manufacturer's instructions. Quantitative PCR was performed on a LightCycler system with SYBR green master mix following the manufacturer's instructions (Roche). The relative quantitative RT-PCR data was normalized to the Cq number of […] and compared to a mock control. […]

Data set [7] deals with c-MYB. Nature of the data set: RT-qPCR of γ-globin transcription regulators in human primary erythroid cells: c-MYB. As to conditions: AS-28 0.5 μM. It is filed as cell-based. As for the experimental part: as §4, §3, §2
Data set [8] in a line: in vivo. The conditions noted are these: rat.
Description: The abbreviations as defined as follows: IV—intravenous; PO—per-os (oral); T1/2—half-life; CL—clearance; Vss—steady-state distribution volume; AUC(0-inf)—area under the curve; F—bioavailability; ND—not detected.
Data set [9] relates to GATA1. Briefly: RT-qPCR of γ-globin transcription regulators in human primary erythroid cells: GATA1. It is filed as cell-based. The conditions noted are these: AS-28 0.5 μM. As for the experimental part:
as §4, §3, §2

The subject of data set [10] is HU-resistant primary human erythroid cells. Nature of the data set: Cell viability in hydroxyurea-resistant primary human erythroid cells. It is filed as cell-based. The conditions noted are these: 0.5 μM. As for the experimental part:
as §1
Cell viability was assessed using AlamarBlue reagent (Invitrogen). After 3 days of treatment, 100 μl of treated cell culture was transferred into a 96-well plate and 1/10 volume of AlamarBlue reagent was added and the cell culture was incubated overnight at 37° C. Cell viability was evaluated using a multi-label counter (Ex 530-560 nm, Em 590 nm) (PerkinElmer). […]

For data set [11], the system named is SCD mice. Briefly: Oral AS-28 in SCD mice: blood count, HbF HPLC, F-cells, blood smear. The data set is classed as in vivo. The conditions noted are these: 50, 75 or 100 mg/kg oral gavage twice per day, 5 days per week, 4 weeks. The method, then: Sickle cell disease mice (B6; 129-Hba^tm1(HBA)Tow, Hbb^tm2(HBG1,HBB*)Tow/J) were purchased from Jackson Laboratory and were bred at the AS Core, Academia Sinica. Mice of 6-8 weeks old were used for experiments. Treatment groups received vehicle [20% (2-Hydroxypropyl)-β-cyclodextrin] plus AS-28 (50 mg/kg, 75 mg/kg or 100 mg/kg), which was administered by oral gavage twice per day, 5 days per week, for 4 weeks.
Blood was collected by submandibular blood collection and analysis was performed using a ProCyte Dx automatic analyzer.
10 μl of whole blood was washed twice with PBS and then fixed with 0.05% glutaraldehyde for 10 minutes. After fixation, the cells were washed twice with PBS and then permeabilized by adding cold 0.1% Triton X-100 for 5 minutes. Cells were washed twice with 0.1% BSA/PBS and stained with PE-HbF antibody (BD) for 40 minutes at room temperature (with protection from light). Finally, the cells were washed three times with 0.1% BSA/PBS and passed through a […] cell strainer (Falcon). F-cell % was analyzed by flow cytometry (LSRII-18P, BD).
50 μl of whole blood was lysed in 200 μl ddH2O and centrifuged for 5 minutes at 13,000 rpm to extract the hemolysate. HPLC was performed according to a previously described protocol^22.
For hypoxia treatment, whole blood was incubated in a hypoxic incubator chamber (3% 02) for 30 minutes. […] of whole blood (with or without hypoxia) was used to make blood smears on slides. Slides were air-dried and then stained with Liu-stain before quantifying the percentage of sickle-shaped cells.
To further evaluate the therapeutic potential of AS-28 for treating hemoglobinopathies, SCD mice (an SCD disease animal model generated by the laboratory of Prof. Tim Townes, University of Alabama) were used to examine whether AS-28 treatment could relieve anemia in SCD mice. Different dosages of AS-28 were administered to 6-8 week-old SCD mice over four weeks. After four weeks of oral gavage, blood samples from the treated SCD mice were collected for several biochemical analyses (FIG. 5). […] Reticulocyte (RET), white blood cell (WBC) and neutrophil (NEUT) values were equivalent between AS-28-treated and mock-treated SCD mice. […] A diagnostic indicator of SCD is the characteristic sickle-shaped morphology of red blood cells under hypoxia.

The nature of data set [12]: Solubility of the compounds. It is filed as physicochemical.

Regarding `CCN1CCN(c2nc(Nc3cccc(NC(=O)C#Cc4ccc(C)cc4)c3)c3ncn(CC)c3n2)CC1` [AS-28, 3-p-Tolyl-propynoic acid {3-[9-ethyl-2-(4-ethylpiperazin-1-yl)-9H-purin-6-ylamino]phenyl}amide], the “expression level of BCL11A protein (in words)” value in data set [1] is given as “significantly decreased”. Moreover, the “reduction of BCL11A protein levels” value in data set [1] (FIG. 4) is listed as 50%. In addition, in [1] (FIG. 11), the “reduction of BCL11A protein levels” value stood at 60%. In addition, the “top 5 canonical pathways affected (IPA of DEGs, fold change ≥1.4, p<0.05)” value in data set [2] was “does not include the cell toxicity-related pathways”. Moreover, in data set [3] (0.5 μM), the cytotoxicity entry is listed as “without inducing significant cytotoxicity”. Moreover, in data set [3] (1 μM and 2 μM), the cytotoxicity result is on record as “cell cytotoxicity”. Also, in data set [4] (0.5 μM), the “γ-globin mRNA expression activation” value stood at 3.5 fold. In data set [4] (1 μM and 2 μM), the γ-globin induction entry is “reduced”. Moreover, the “NFE2L2 expression (γ globin activator), RT-qPCR vs mock” value in data set [5] came out at 1.5 fold. Also, the “γ-globin mRNA expression elevation” value in data set [6] is on record as “at least 2 fold”. Further, in data set [7], the “c-MYB expression (γ globin repressor), RT-qPCR vs mock” value worked out at 0.5 fold. In data set [8], the bioavailability (in general, dose-corrected exposure relative to a reference, in per cent) is approximately 25%. Further, the “GATA1 expression (γ globin activator), RT-qPCR vs mock” value in data set [9] worked out at 1.5 fold. Further, in data set [10], the cytotoxicity entry is on record as “only minor cytotoxicity”. In data set [11], the “hemoglobin levels (HGB) vs mock-treated control” value is recorded as “slightly increased”, the “neutrophil (NEUT) values vs mock-treated” value was “equivalent”, the “percentage of F-cells (flow cytometry)” value is on record as “elevated” and the “percentage of HbF (HPLC)” value is listed as “significantly increased”. Also, in data set [11], the “percentage of sickle-shaped cells in blood smears under hypoxia” value is listed as “significantly decreased”, the “red blood cell (RBC) numbers vs mock-treated control” value was “slightly increased”, the “reticulocyte (RET) values vs mock-treated” value is on record as “equivalent” and the “white blood cell (WBC) values vs mock-treated” value is listed as “equivalent”. In data set [12], the water solubility result is “improved”.
As to `CCCC(=O)[O-].[Na+]` [NaB, sodium butyrate, reference compound], the “expression level of BCL11A protein (in words)” value in [1] is “significantly decreased”.

Source of the values: US12246021B2, “Compounds for uses in pharmacological induction of HBF for treatment of sickle cell disease and ß-thalassemia” (Academia Sinica, priority 2019, dated 2025).
